Key:
Bean = experiment: Post-emergent herbicidal test, bean; format: in vivo; parameters: key: 1: no perceptible injury; 2: intermediate degrees of injury; 3: intermediate degrees of injury; 4: intermediate degrees of injury; 5: the plant was dead; conditions: Table II; 2500 parts per million, after ten days
Protocol: (§1) Suspensions of the test compounds were prepared by dissolving one gram of compound in 50 milliliters of acetone in which had been dissolved 0.1 gram (10 percent of the weight of compound) of an alkylphenoxyethanol sufactant, as an emulsifying or dispersing agent. The resulting solution was mixed into 160 milliliters of water to give roughly 200 milliliters of a suspension containing the compound in finely divided form. The thus prepared stock suspension contained 0.5 percent by weight of compound. The test concentrations employed in the tests described below were obtained by diluting the stock suspension with water. The test procedures were as follows:
(§2) Experiments were also conducted to determine the phytotoxicity of representative compositions with respect to healthy fresh plants. Solutions of the compounds were prepared as described above to provide a concentration of 2500 parts per million of the test compound. The test plants were sprayed in accordance with the procedure described above for the Mite Foliage Spray Test so as to deliver approximately 100 milliliters of test solutions to the leaves of each plant tested. The sprayed plants and controls were set aside for approximately one hour to allow the solutions to dry and were then placed in the greenhouse. After ten days the plants were visually inspected to determine the extent of foliage injury. A rating of 1 indicates no perceptible injury; 5 indicates the plant was dead and ratings of 2, 3 and 4 indicate intermediate degrees of injury based upon the number and extent to which leaves were injured.

Mustard = experiment: Preliminary herbicide seed germination test (pre-emergent), mustard; format: in vivo, Brassica pincea var. foliosa (Florida broadleaf); parameters: key: 5: no seedling emerged; 4: few seedlings emerged and/or very severe stunting; 3: moderate reduction in stand and/or moderate stunting.; 2: very slight reduction in stand and/or slight stunting; 1: no injury, seedlings appear no different with respect to stand or growth than untreated controls; conditions: Table II; ten to twelve days after application
Protocol: as §1
(§3) The following seeds were used in this test:
Mustard--Brassica pincea var. foliosa (Florida broadleaf)
(§4) Two […] mixtures were prepared as follows:
(§5) Each of the above mixtures was rolled separately in 5 gallon containers for approximately one-half hour on ball mill to insure uniform mixing of seeds and soil. For each compound four 3-inch pots were filled with soil to within 11/2 inches of top of pots. To two of these pots were added 70 cc. of Mixture I. To the remaining 2 pots were added 70 cc. of Mixture II. The seed-soil mixture was tamped firmly, and the pots were removed to the greenhouse and watered lightly. About 2 hours after planting, 25 milliliters of the test formulation were added to one pot containing Mixture I and one pot containing Mixture II. An equal volume of a water solution containing acetone and an emulsifier in the same concentration as the herbicidal mixture but without the candidate herbicide was also added to each of the soil-seed mixtures. These pots are used as check or control units. The test compounds were formulated by diluting the stock suspension with water to obtain the desired concentration of the compound in parts per million of the final formulation. Each compound was tested at the same concentration. […] Ratings were made according to the following designations: […]

Crabgrass = experiment: Preliminary herbicide seed germination test (pre-emergent), crabgrass; format: in vivo, Digitaria sanguinalis; parameters: key: 5: no seedling emerged; 4: few seedlings emerged and/or very severe stunting; 3: moderate reduction in stand and/or moderate stunting.; 2: very slight reduction in stand and/or slight stunting; 1: no injury, seedlings appear no different with respect to stand or growth than untreated controls; conditions: Table II; ten to twelve days after application
Protocol: as §1, §3
Crabgrass--Digitaria sanguinalis
as §4, §5

[1] = test system: Red root pigweed (Amaranthus); experiment: Preliminary herbicide seed germination test (pre-emergent), red root pigweed; format: in vivo, Amaranthus retroflexus; parameters: key: 5: no seedling emerged; 4: few seedlings emerged and/or very severe stunting; 3: moderate reduction in stand and/or moderate stunting.; 2: very slight reduction in stand and/or slight stunting; 1: no injury, seedlings appear no different with respect to stand or growth than untreated controls; conditions: Table II; ten to twelve days after application
Protocol: as §1, §3
Red root pigweed--Amaranthus retroflexus
as §4, §5

[2] = test system: egg of the two-spotted mite; experiment: Mite Ovicide Test (eggs); format: in vivo, Tetranychus urticae (Koch); parameters: key to Miticidal, Egg: A: Excellent Control; B: Partial Control; No Control; conditions: Table II; unhatched eggs after four days
Protocol: Suspensions of the test compounds were prepared by dissolving one gram of compound in 50 milliliters of acetone in which had been dissolved 0.1 gram (10 percent of the weight of compound) of an alkylphenoxyethanol sufactant, as an emulsifying or dispersing agent. The resulting solution was mixed into 160 milliliters of water to give roughly 200 milliliters of a suspension containing the compound in finely divided form. The thus prepared stock suspension contained 0.5 percent by weight of compound. The test concentrations employed in the tests described below were obtained by diluting the stock suspension with water. The test procedures were as follows: The test organism was the egg of the two-spotted mite (Tetranychus urticae (Koch)), as obtained from adults reared on […] bean plants under controlled conditions of 80±5° F. and 50±5 percent relative humidity. Heavily infested leaves from a stock culture were placed on the primary leaves of two bean plants six to eight inches in height growing in a two-and-a-half inch clay pot. Females were allowed to oviposit for a period of 48 hours and the leaves of the infested plants were dipped in a solution containing 800 parts of tetraethyl pyrophosphate per million parts of water in order to destroy the reproductory forms and thus prevent further egg laying. […] The plants were allowed to dry thoroughly. The test compounds were formulated by diluting the stock suspension with water to give a suspension containing varying amounts of test compound per million parts of final formulation. The potted plants (one pot per compound) were placed on a revolving turntable and sprayed with 100-110 milliliters of test compound formulation by use of a DeVilbis spray gun set at 40 spig. air pressure. This application which lasted 30 seconds, was sufficient to wet the plants to run-off. As a control, 100-110 milliliters of a water solution containing acetone and emulsifier in the same concentrations as the test compound formulation, but containing no test compound, were also sprayed on plants infested with eggs. The sprayed plants were held at 80±5° F. and 50±5 percent relative humidity for four days, after which a microscopic examination was made of unhatched (dead) and hatched (living) eggs. In these tests the pesticidal activity of the compounds against mites and mite eggs was rated as follows: Tests were conducted in accordance with the procedures given at pages 17 to 21 supra. The results are expressed in the same manner as used in Table II, except with respect to miticidal activity. For mite adult and mite egg comparison purposes, results are given in parts per million (ppm) required for a 50 percent kill of mites or eggs, respectively.

Corn = experiment: Post-emergent herbicidal test, corn; format: in vivo; parameters: key: 1: no perceptible injury; 2: intermediate degrees of injury; 3: intermediate degrees of injury; 4: intermediate degrees of injury; 5: the plant was dead; conditions: Table II; 2500 parts per million, after ten days
Protocol: as §1, §2

Row | Structure (SMILES) | Post-emergent Herbicidal, Bean (Bean) | Pre-emergent Herbicidal, Mustard (Mustard) | Pre-emergent Herbicidal, Crabgrass (Crabgrass) | Pre-emergent Herbicidal, Amaranthus [1] | Miticidal, Egg [2] | Post-emergent Herbicidal, Corn (Corn)
1 | CCCCC(CC)C(=O)OC1=C(c2ccccc2Cl)C(=O)CC1 (centres unmarked) [Compound 1] | 3 | 5 | 5 | 5 | A | 4
2 | O=C1CCC(OC(=O)c2ccccc2)=C1c1ccccc1Cl [Compound 2] | 3 | 1 | 3 | 1 | A | 3
3 | CC(=O)OC1=C(c2ccc(Cl)cc2Cl)C(=O)CC1 [Compound 3] | 2 | 1 |  | 2 | A | 3
4 | CC(C)C(=O)OC1=C(c2ccc(Cl)cc2Cl)C(=O)CC1 [Compound 4] | 2 | 1 |  | 1 | B | 4
5 | CCCCC(CC)C(=O)OC1=C(c2ccc(Cl)cc2Cl)C(=O)CC1 (centres unmarked) [Compound 5] | 3 | 1 |  | 1 | A | 3
6 | CCCCCCCCCCCCCCCC(=O)OC1=C(c2ccc(Cl)cc2Cl)C(=O)CC1 [Compound 6] | 1 | 1 |  | 1 | B | 1
7 | CCCCC(CC)C(=O)OC1=C(c2ccccc2C)C(=O)CC1 (centres unmarked) [Compound 7] | 2 | 1 | 3 | 3 | A | 2
8 | CCCCCCCCCCCCCCCC(=O)OC1=C(c2ccccc2C)C(=O)CC1 [Compound 8] | 3 | 1 | 2 | 3 | B | 3
9 | CCCCC(CC)C(=O)OC1=C(c2ccc(C)cc2C)C(=O)CC1 (centres unmarked) [Compound 9, 3-(2-ethylhexanoyloxy)-2-(2', 4'-dimethylphenyl)-2-cyclopentenone] | 2 | 2 | 4 | 2 | A | 3
10 | Cc1ccc(C2=C(OC(=O)c3ccccc3)CCC2=O)c(C)c1 [Compound 10] | 3 | 1 | 2 | 1 | B | 3
11 | CC(=O)OC1=C(c2cc(C)ccc2C)C(=O)CC1 [Compound 11] | 2 | 3 | 1 | 3 | C | 2
12 | Cc1ccc(C)c(C2=C(OC(=O)C(C)C)CCC2=O)c1 [Compound 12] | 2 | 1 | 1 | 1 | B | 2
13 | CCCCC(CC)C(=O)OC1=C(c2cc(C)ccc2C)C(=O)CC1 (centres unmarked) [Compound 13] | 2 | 1 | 1 | 1 | A | 2
14 | CCCCCCCCCCCCCCCC(=O)OC1=C(c2cc(C)ccc2C)C(=O)CC1 [Compound 14] | 2 | 1 | 1 | 1 | A | 1
15 | CC(=O)OC1=C(c2cc(C)ccc2C)C(=O)C(C)C1 (centres unmarked) [Compound 15] | 2 | 2 | 2 | 3 | B | 3
16 | Cc1ccc(C)c(C2=C(OC(=O)C(C)C)CC(C)C2=O)c1 (centres unmarked) [Compound 16] | 3 | 2 | 1 | 3 | B | 3

Reference: patent US4551547A, “Biocidal 2-aryl-1, 3-cyclopentanedione enol ester compounds” (Union Carbide Corporation, priority 1983, dated 1985)
